Measured values from ChEMBL document CHEMBL5724914, “Linking interpersonal differences in gut microbiota composition and drug biotransformation activity” (2024).

Assays:
[1] = The drug is tested on WLS-220 corresponding to human gut metagenome with ENA study accession number: PRJEB37062 and ENA sample accession number: ERS12561769 for biotransformation under anaerobic condition. The drug concentrations were measured over 9 timepoints collected between 0 and 24 hours of incubation by liquid-chromatography-coupled mass spectrometry (LC–MS); conditions: 2 µM
[2] = The drug is tested on WLS-370 corresponding to human gut metagenome with ENA study accession number: PRJEB37062 and ENA sample accession number: ERS12561793 for biotransformation under anaerobic condition. The drug concentrations were measured over 9 timepoints collected between 0 and 24 hours of incubation by liquid-chromatography-coupled mass spectrometry (LC–MS); conditions: 2 µM
[3] = The drug is tested on WLS-082 corresponding to human gut metagenome with ENA study accession number: PRJEB37062 and ENA sample accession number: ERS12561751 for biotransformation under anaerobic condition. The drug concentrations were measured over 9 timepoints collected between 0 and 24 hours of incubation by liquid-chromatography-coupled mass spectrometry (LC–MS); conditions: 2 µM
[4] = The drug is tested on WLS-086 corresponding to human gut metagenome with ENA study accession number: PRJEB37062 and ENA sample accession number: ERS12561752 for biotransformation under anaerobic condition. The drug concentrations were measured over 9 timepoints collected between 0 and 24 hours of incubation by liquid-chromatography-coupled mass spectrometry (LC–MS); conditions: 2 µM
[5] = The drug is tested on Z-008 corresponding to metagenome with ENA study accession number: PRJEB37062 and ENA sample accession number: ERS12561808 for biotransformation under anaerobic condition. The drug concentrations were measured over 9 timepoints collected between 0 and 24 hours of incubation by liquid-chromatography-coupled mass spectrometry (LC–MS); conditions: 2 µM
[6] = The drug is tested on WLS-077 corresponding to human gut metagenome with ENA study accession number: PRJEB37062 and ENA sample accession number: ERS12561750 for biotransformation under anaerobic condition. The drug concentrations were measured over 9 timepoints collected between 0 and 24 hours of incubation by liquid-chromatography-coupled mass spectrometry (LC–MS); conditions: 2 µM
[7] = The drug is tested on Z-023 corresponding to metagenome with ENA study accession number: PRJEB37062 and ENA sample accession number: ERS12561822 for biotransformation under anaerobic condition. The drug concentrations were measured over 9 timepoints collected between 0 and 24 hours of incubation by liquid-chromatography-coupled mass spectrometry (LC–MS); conditions: 2 µM
[8] = The drug is tested on WLS-006 corresponding to human gut metagenome with ENA study accession number: PRJEB37062 and ENA sample accession number: ERS12561741 for biotransformation under anaerobic condition. The drug concentrations were measured over 9 timepoints collected between 0 and 24 hours of incubation by liquid-chromatography-coupled mass spectrometry (LC–MS); conditions: 2 µM
[9] = human gut metagenome, 24 h, 2 µM
[10] = human gut metagenome, 24 h, 2 µM; remark: listed apart in the source
[11] = human gut metagenome, 24 h, 2 µM; remark: listed apart in the source
[12] = The drug is tested on Z-009 corresponding to pig gut metagenome with ENA study accession number: PRJEB37062 and ENA sample accession number: ERS12561809 for biotransformation under anaerobic condition. The drug concentrations were measured over 9 timepoints collected between 0 and 24 hours of incubation by liquid-chromatography-coupled mass spectrometry (LC–MS); conditions: 2 µM
[13] = The drug is tested on Z-016 corresponding to mouse gut metagenome with ENA study accession number: PRJEB37062 and ENA sample accession number: ERS12561815 for biotransformation under anaerobic condition. The drug concentrations were measured over 9 timepoints collected between 0 and 24 hours of incubation by liquid-chromatography-coupled mass spectrometry (LC–MS); conditions: 2 µM
[14] = human gut metagenome, 24 h, 2 µM; remark: listed apart in the source
[15] = The drug is tested on Z-021 corresponding to metagenome with ENA study accession number: PRJEB37062 and ENA sample accession number: ERS12561820 for biotransformation under anaerobic condition. The drug concentrations were measured over 9 timepoints collected between 0 and 24 hours of incubation by liquid-chromatography-coupled mass spectrometry (LC–MS); conditions: 2 µM
[16] = human gut metagenome, 24 h, 2 µM; remark: listed apart in the source
[17] = human gut metagenome, 24 h, 2 µM; remark: listed apart in the source
[18] = human gut metagenome, 24 h, 2 µM; remark: listed apart in the source
[19] = The drug is tested on WLS-170 corresponding to human gut metagenome with ENA study accession number: PRJEB37062 and ENA sample accession number: ERS12561762 for biotransformation under anaerobic condition. The drug concentrations were measured over 9 timepoints collected between 0 and 24 hours of incubation by liquid-chromatography-coupled mass spectrometry (LC–MS); conditions: 2 µM
[20] = human gut metagenome, 24 h, 2 µM; remark: listed apart in the source
Also: call rule not given here.

Structure (SMILES) | Bacterial Biotransformation [1] | Bacterial Biotransformation [2] | Bacterial Biotransformation [3] | Bacterial Biotransformation [4] | Bacterial Biotransformation [5] | Bacterial Biotransformation [6] | Bacterial Biotransformation [7] | Bacterial Biotransformation [8] | Bacterial Biotransformation [9] | Bacterial Biotransformation [10] | Bacterial Biotransformation [11] | Bacterial Biotransformation [12] | Bacterial Biotransformation [13] | Bacterial Biotransformation [14] | Bacterial Biotransformation [15] | Bacterial Biotransformation [16] | Bacterial Biotransformation [17] | Bacterial Biotransformation [18] | Bacterial Biotransformation [19] | Bacterial Biotransformation [20]
O=c1[nH]c2ccccc2n1CCCN1CCC(n2c(=O)[nH]c3cc(Cl)ccc32)CC1 [DOMPERIDONE] | Compound NOT metabolized | Compound NOT metabolized | Compound NOT metabolized | Compound metabolized | Compound NOT metabolized | Compound NOT metabolized | Compound NOT metabolized | Compound NOT metabolized | Compound NOT metabolized | Compound NOT metabolized | Compound NOT metabolized | Compound NOT metabolized | Compound NOT metabolized | Compound NOT metabolized | Compound NOT metabolized | Compound NOT metabolized | Compound NOT metabolized | – | – | –
OCCN1CCN(CCCN2c3ccccc3Sc3ccc(C(F)(F)F)cc32)CC1 [FLUPHENAZINE] | Compound metabolized | Compound metabolized | Compound metabolized | Compound metabolized | Compound NOT metabolized | – | Compound metabolized | Compound NOT metabolized | Compound metabolized | Compound metabolized | Compound metabolized | Compound metabolized | Compound NOT metabolized | Compound metabolized | Compound metabolized | Compound metabolized | Compound metabolized | Compound NOT metabolized | Compound metabolized | Compound metabolized
C=CCN1CC[C@]23c4c5ccc(O)c4O[C@H]2C(=O)CC[C@@]3(O)[C@H]1C5 [NALOXONE] | Compound NOT metabolized | Compound NOT metabolized | Compound NOT metabolized | Compound NOT metabolized | Compound NOT metabolized | Compound NOT metabolized | Compound NOT metabolized | – | Compound NOT metabolized | Compound NOT metabolized | Compound metabolized | Compound NOT metabolized | Compound NOT metabolized | Compound NOT metabolized | Compound NOT metabolized | Compound NOT metabolized | Compound NOT metabolized | Compound NOT metabolized | Compound NOT metabolized | Compound NOT metabolized
CO[C@]12C[C@@H](COC(=O)c3cncc(Br)c3)CN(C)[C@@H]1Cc1cn(C)c3cccc2c13 [NICERGOLINE] | Compound NOT metabolized | Compound metabolized | Compound NOT metabolized | Compound metabolized | Compound NOT metabolized | – | Compound metabolized | Compound metabolized | Compound NOT metabolized | Compound NOT metabolized | Compound NOT metabolized | Compound metabolized | Compound metabolized | Compound NOT metabolized | Compound metabolized | Compound NOT metabolized | Compound NOT metabolized | Compound NOT metabolized | Compound NOT metabolized | Compound NOT metabolized
COc1cc2nc(N3CCN(C(=O)c4ccco4)CC3)nc(N)c2cc1OC [PRAZOSIN] | Compound metabolized | Compound metabolized | Compound metabolized | Compound metabolized | Compound NOT metabolized | Compound NOT metabolized | Compound NOT metabolized | Compound NOT metabolized | Compound metabolized | Compound metabolized | Compound NOT metabolized | Compound NOT metabolized | Compound NOT metabolized | – | Compound NOT metabolized | Compound metabolized | Compound metabolized | Compound NOT metabolized | Compound metabolized | Compound NOT metabolized
COC(=O)[C@H]1[C@H]2C[C@@H]3c4[nH]c5cc(OC)ccc5c4CCN3C[C@H]2C[C@@H](OC(=O)c2cc(OC)c(OC)c(OC)c2)[C@@H]1OC [RESERPINE] | – | Compound metabolized | Compound metabolized | Compound metabolized | Compound NOT metabolized | Compound NOT metabolized | Compound metabolized | Compound metabolized | – | – | Compound metabolized | Compound NOT metabolized | Compound NOT metabolized | Compound metabolized | Compound metabolized | Compound NOT metabolized | Compound metabolized | – | – | Compound NOT metabolized
